Patent publication US4299970A, “Oxy-alkylamino carboxylic esters” (Beecham Group Limited, priority 1974, dated 1981)
≈ marks a conversion by molar mass, not a printed value.

Legend:
[1] = test system: femoral artery of the hind limb; assay: vasodilator activity in femoral artery of the hind limb (vascular resistance); type: in vivo, beagle dog; settings: dose range of 0.01-1 mg/kg, intra-arterially
Method: (§1) b. The vasodilator activity of the compounds was determined in the femoral artery of the hind limb of the anaesthetised beagle dog. The method used was similar to that described by J. Nakano and J. R. McCurdy, (1967), J. Pharmac. Exp. Ther., 156, 538.
The compounds were administered into the iliac artery and the effects on both flow and pressure in the hind limb were recorded. Changes in vascular resistance (R) were calculated from the following expression: [formula]

[2] = test system: total peripheral resistance; assay: total peripheral resistance, intravenous; type: in vivo, beagle dog; settings: dose range of 0.01-10 mg/kg, intra-venously
Method: as §1
In other experiments the compounds were administered into the left femoral vein and the right femoral arterial pressure and cardiac output were monitored. From these experiments, total peripheral resistance (TPR) was calculated from the expression: [formula]

blood pressure = assay: anti-hypertensive activity in the renal hypertensive rat; type: in vivo; settings: 100 mg/kg, orally
Method: c. The anti-hypertensive activity of the compounds was determined in the renal hypertensive rat. Rats were made hypertensive by nephrectomy and treatment with deoxycorticosterone acetate/NaCl. The compounds were administered orally to a group of 3 hypertensive rats at a dose level of 100 mg/kg and their blood pressure was monitored after 4, 6 and 24 hours.

[3] = test system: guinea pig platelet aggregation induced by ADP; assay: inhibition of guinea pig platelet aggregation induced in vitro by ADP; type: cell-based; settings: Cavia porcellus, ADP 5.45×10^-7 M, platelet rich plasma, 37° C.
Method: a. The compounds were examined for their ability to inhibit guinea pig platelet aggregation induced, in vitro, by 5.45×10^-7 M adenosine diphosphate (ADP).
The method consisted of diluting the compound immediately before use from a 10 mg/ml solution in ethanol to a 1 mg/ml solution with saline and then adding the appropriate volume to 0.5 ml of platelet rich plasma. The mixture was stirred at 37° C. for 1 minute before 25 μl of an ADP solution was added to give a final ADP concentration of 5.45×10^-7 M. The aggregation response was then recorded relative to the control.

[4] = test system: human platelet aggregation induced by adenosine diphosphate (ADP); assay: inhibition of human platelet aggregation induced in vitro by ADP; type: cell-based; settings: 10^-4 M, platelet rich plasma, 37° C.
Method: (§2) b. The compounds were examined for their ability to inhibit human platelet aggregation induced, in vitro, either by adenosine diphosphate (ADP) or collagen. The compounds were added in saline or dimethylformamide to platelet rich plasma at 37° C. to give a final concentration of 10^-4 M. After 3 minutes the platelets were challenged with ADP or collagen. The aggregation response was then recorded relative to the control.

[5] = test system: human platelet aggregation induced by collagen; assay: inhibition of human platelet aggregation induced in vitro by collagen; type: cell-based
Method: as §2

[6] = test system: gerbil colon; contraction to prostaglandin F2α; assay: prostaglandin antagonist activity on the isolated perfused gerbil colon (contraction to prostaglandin F2α); settings: Meriones unguiculatus; reduction of contraction to prostaglandin F2α; one minute pre-contact time
Method: The compounds were tested for prostaglandin-like and for prostaglandin antagonist activity on the isolated perfused gerbil colon preparation (smooth muscle). This has been shown by J. R. Weeks, J. R. Schultz and W. E. Brown, (1968), J. App. Physiol, 25, 783, to have greater precision and sensitivity than other preparations. A 15 mm portion of the descending colon is suspended in an organ bath and perfused with De Jalon's saline at 32° C. Compounds were given in a three minute cycle with a 45 second contact time and a 15 second washout time. Antagonist compounds were given with a one minute pre-contact time.
Antagonist activity was determined by measuring the percentage reduction of the contraction to two standard doses of prostaglandin F2α which gave responses between 20% and 80% of maximum response.

CCCCCC(O)CCN1C(=O)CCC(=O)C1CCCCCCC(=O)OCC (stereo not drawn) [Compound 73, 2-(6'-Ethoxycarbonyl-n-hexyl)-1-(3"-hydroxy-n-octyl)-piperidin-3,6-dione]
vascular resistance [1]: decreased vascular resistance | total peripheral resistance (TPR) [2]: decreased total peripheral resistance | fall in blood pressure after 4 hours (blood pressure; 4 hours): 16% | blood pressure after 6 hours (blood pressure; 6 hours): risen to normal hypertensive levels | IC50 [3]: 44 µM | inhibition at 100 µM [4]: 87% | inhibition at 100 µM ([5]; 10^-4 M, collagen, platelet rich plasma, 37° C.): 100% | IC50 ([5]; Platelet, read-out: IC50 against collagen-induced aggregation): 2.8 µM | IC50 [6]: 3.4 µg/mL (≈ 8.55 µM)
